Earlier results as cited in patent US20040076646A1, “Haptenizing cancer cell components” (priority 2001, published 2004).

System: individuals / adult Americans

urushiol
amount of urushiol sufficient to induce the rash response (some individuals, molecular traces): ≤ 2 µg
proportion of adult Americans who respond (≦50 μg of purified material): 80-90%
